Test results published in ChEMBL document CHEMBL1153147, “Solid-phase synthesis and antibiotic activities of cyclodecapeptides on the scaffold of naturally occurring Laterocidin” (2010).
Values after ≈ are worked out from the molar mass of the structure shown.

How the values were obtained:
Format in all cases: functional
[1] = test system: Staphylococcus aureus; assay: Antibacterial activity against methicillin-resistant Staphylococcus aureus clinical isolate after 20 hrs by broth dilution method
[2] = test system: Staphylococcus aureus; assay: Antibacterial activity against Staphylococcus aureus ATCC 29213 after 20 hrs by broth dilution method; settings: ATCC 29213, 20 h
[3] = test system: Escherichia coli; assay: Antibacterial activity against extended spectrum beta lactamase-producing Escherichia coli clinical isolate after 20 hrs by broth dilution method
[4] = test system: Escherichia coli; assay: Antibacterial activity against Escherichia coli ATCC 25922 after 20 hrs by broth dilution method; settings: ATCC 25922, 20 h
[5] = test system: Escherichia coli; assay: Antibacterial activity against drug-resistant Escherichia coli clinical isolate after 20 hrs by broth dilution method
[6] = test system: Pseudomonas aeruginosa; assay: Antibacterial activity against Pseudomonas aeruginosa ATCC 27853 after 20 hrs by broth dilution method; settings: ATCC 27853, 20 h
[7] = test system: Bacillus subtilis; assay: Antibacterial activity against Bacillus subtilis ATCC 82 after 20 hrs by broth dilution method; settings: ATCC 82, 20 h

SMILES	MIC [1] [µg/mL]	MIC [2] [µg/mL]	MIC [3] [µg/mL]	MIC [4] [µg/mL]	MIC [5] [µg/mL]	MIC [6] [µg/mL]	MIC [7] [µg/mL]
CC(C)C[C@@H]1NC(=O)[C@H](CC(N)=O)NC(=O)[C@H](CC(N)=O)NC(=O)[C@@H](Cc2ccccc2)NC(=O)[C@H](Cc2ccccc2)NC(=O)[C@@H]2CCCN2C(=O)[C@@H](Cc2ccccc2)NC(=O)[C@H](CC(C)C)NC(=O)[C@H](CCCN)NC(=O)[C@H](C(C)C)NC1=O	4 (≈ 3.32 µM)	2 (≈ 1.66 µM)	128 (≈ 106 µM)	> 256	128 (≈ 106 µM)	> 256	2 (≈ 1.66 µM)
CC(C)C[C@@H]1NC(=O)[C@H](CC(N)=O)NC(=O)[C@H](CC(N)=O)NC(=O)[C@@H](Cc2ccccc2)NC(=O)[C@H](Cc2ccc(O)cc2)NC(=O)[C@@H]2CCCN2C(=O)[C@@H](Cc2ccccc2)NC(=O)[C@H](CC(C)C)NC(=O)[C@H](CCCN)NC(=O)[C@H](C(C)C)NC1=O	1 (≈ 0.818 µM)	1 (≈ 0.818 µM)	64 (≈ 52.4 µM)	> 256	16 (≈ 13.1 µM)	> 256	0.5 (≈ 0.409 µM)
CC(C)C[C@@H]1NC(=O)[C@H](CCCN)NC(=O)[C@H](C(C)C)NC(=O)[C@H](CC(C)C)NC(=O)[C@H](CC(N)=O)NC(=O)[C@H](CC(N)=O)NC(=O)[C@@H](Cc2ccccc2)NC(=O)[C@H](Cc2ccc(O)cc2)NC(=O)[C@@H]2CCCN2C(=O)[C@H](Cc2ccccc2)NC1=O	256 (≈ 209 µM)	128 (≈ 105 µM)	> 256	> 256	–	> 256	32 (≈ 26.2 µM)
CC(C)C[C@@H]1NC(=O)[C@H](CC(N)=O)NC(=O)[C@H](CC(N)=O)NC(=O)[C@@H](Cc2ccccc2)NC(=O)[C@H](Cc2ccccc2)NC(=O)[C@@H]2CCCN2C(=O)[C@@H](Cc2ccc(O)cc2)NC(=O)[C@H](CC(C)C)NC(=O)[C@H](CCCN)NC(=O)[C@H](C(C)C)NC1=O	4 (≈ 3.27 µM)	2 (≈ 1.64 µM)	256 (≈ 209 µM)	64 (≈ 52.4 µM)	64 (≈ 52.4 µM)	> 256	1 (≈ 0.818 µM)
CC(C)C[C@@H]1NC(=O)[C@H](CC(N)=O)NC(=O)[C@H](CC(N)=O)NC(=O)[C@H](Cc2ccccc2)NC(=O)[C@H](Cc2ccc(O)cc2)NC(=O)[C@@H]2CCCN2C(=O)[C@@H](Cc2ccccc2)NC(=O)[C@H](CC(C)C)NC(=O)[C@H](CCCN)NC(=O)[C@H](C(C)C)NC1=O	16 (≈ 13.1 µM)	32 (≈ 26.2 µM)	> 256	> 256	–	> 256	32 (≈ 26.2 µM)
CC(C)C[C@@H]1NC(=O)[C@H](CCCN)NC(=O)[C@H](C(C)C)NC(=O)[C@H](CC(C)C)NC(=O)[C@H](CC(N)=O)NC(=O)[C@H](CC(N)=O)NC(=O)[C@H](Cc2ccccc2)NC(=O)[C@H](Cc2ccc(O)cc2)NC(=O)[C@@H]2CCCN2C(=O)[C@H](Cc2ccccc2)NC1=O	128 (≈ 105 µM)	64 (≈ 52.4 µM)	> 256	> 256	–	> 256	64 (≈ 52.4 µM)
CC(C)C[C@@H]1NC(=O)[C@H](CC(=O)O)NC(=O)[C@H](CC(N)=O)NC(=O)[C@@H](Cc2ccccc2)NC(=O)[C@H](Cc2ccccc2)NC(=O)[C@@H]2CCCN2C(=O)[C@@H](Cc2ccc(O)cc2)NC(=O)[C@H](CC(C)C)NC(=O)[C@H](CCCN)NC(=O)[C@H](C(C)C)NC1=O [LATEROCIDIN]	128 (≈ 105 µM)	32 (≈ 26.2 µM)	> 256	> 256	–	> 256	16 (≈ 13.1 µM)
